Experimental data: PMC5708365, “Histone lysine methyltransferase structure activity relationships that allow for segregation of G9a inhibition and anti-Plasmodium activity” (MedChemComm, 2017)
Where two headings read alike, the source gives them in different places.

Legend:
[1] = system: synchronised P. falciparum parasites; test: In vitro stage-dependent antimalarial activity; assay type: cell-based; conditions: 10× IC50, three distinct 12 hour periods of the intra-erythrocytic life cycle; re-invasion and out-growth
Description: Stage-specific compound treatment effects were elucidated using highly synchronized parasites in 48-well plates with a starting parasitemia of 0.75% and a hematocrit of 2%. […] After treatment, parasites were washed with warm RPMI 1640 medium and placed back into culture without test compound for analysis of re-invasion after completion of the cell cycle in which treatment occurred. Washed parasites after treatment were also diluted 1 : 16 and allowed to grow without compound for an additional two cell cycles (4 days). Parasitemia after re-invasion or after 4 day growth was quantified on infected cells fixed in 0.025% glutaraldehyde and stained with 2× SYBR Green I (Lonza) in PBS.

[2] = system: H3K4me3 levels in P. falciparum 3D7 parasites; test: Parasite histone methylation analysis (Western blot), H3K4me3; assay type: cell-based; conditions: 12 h treatment, relative to DMSO control
Description: (§1) Parasites were treated with drugs for 12 h. After treatment, infected red blood cells were collected and lysed with PBS containing 0.15% saponin. Free parasites were lysed by bath sonication in 1% SDS-PBS and analysed by Western Blot. Blots were probed with primary antibodies specific for H3K4me3 (Abcam ab1012 1 : 1000), H3 core (Abcam ab1791, 1 : 3000) and H3K9me3 (Abcam ab8898, 1 : 1000) diluted in TBS-T (50 mM Tris pH 7.5, 150 mM NaCl, 0.05% Tween-20, 5% BSA), followed by anti-mouse HRP (GE NA931V) or anti-rabbit HRP (GE NA934V) secondary antibodies.

[3] = system: H3K9me3 levels in P. falciparum 3D7 parasites; test: Parasite histone methylation analysis (Western blot), H3K9me3; assay type: cell-based; conditions: 12 h treatment, relative to DMSO control
Description: as §1

[4] = target: T1, G9a (Homo sapiens, UniProt Q96KQ7); conditions: for IC50: read-out: G9a IC50; for IC50 / G9a IC50: SPA, 5 nM G9a, H3 1-25 peptide 0.8 μM, 3H-SAM 8 μM
T1 sequence (Q96KQ7 1-1210): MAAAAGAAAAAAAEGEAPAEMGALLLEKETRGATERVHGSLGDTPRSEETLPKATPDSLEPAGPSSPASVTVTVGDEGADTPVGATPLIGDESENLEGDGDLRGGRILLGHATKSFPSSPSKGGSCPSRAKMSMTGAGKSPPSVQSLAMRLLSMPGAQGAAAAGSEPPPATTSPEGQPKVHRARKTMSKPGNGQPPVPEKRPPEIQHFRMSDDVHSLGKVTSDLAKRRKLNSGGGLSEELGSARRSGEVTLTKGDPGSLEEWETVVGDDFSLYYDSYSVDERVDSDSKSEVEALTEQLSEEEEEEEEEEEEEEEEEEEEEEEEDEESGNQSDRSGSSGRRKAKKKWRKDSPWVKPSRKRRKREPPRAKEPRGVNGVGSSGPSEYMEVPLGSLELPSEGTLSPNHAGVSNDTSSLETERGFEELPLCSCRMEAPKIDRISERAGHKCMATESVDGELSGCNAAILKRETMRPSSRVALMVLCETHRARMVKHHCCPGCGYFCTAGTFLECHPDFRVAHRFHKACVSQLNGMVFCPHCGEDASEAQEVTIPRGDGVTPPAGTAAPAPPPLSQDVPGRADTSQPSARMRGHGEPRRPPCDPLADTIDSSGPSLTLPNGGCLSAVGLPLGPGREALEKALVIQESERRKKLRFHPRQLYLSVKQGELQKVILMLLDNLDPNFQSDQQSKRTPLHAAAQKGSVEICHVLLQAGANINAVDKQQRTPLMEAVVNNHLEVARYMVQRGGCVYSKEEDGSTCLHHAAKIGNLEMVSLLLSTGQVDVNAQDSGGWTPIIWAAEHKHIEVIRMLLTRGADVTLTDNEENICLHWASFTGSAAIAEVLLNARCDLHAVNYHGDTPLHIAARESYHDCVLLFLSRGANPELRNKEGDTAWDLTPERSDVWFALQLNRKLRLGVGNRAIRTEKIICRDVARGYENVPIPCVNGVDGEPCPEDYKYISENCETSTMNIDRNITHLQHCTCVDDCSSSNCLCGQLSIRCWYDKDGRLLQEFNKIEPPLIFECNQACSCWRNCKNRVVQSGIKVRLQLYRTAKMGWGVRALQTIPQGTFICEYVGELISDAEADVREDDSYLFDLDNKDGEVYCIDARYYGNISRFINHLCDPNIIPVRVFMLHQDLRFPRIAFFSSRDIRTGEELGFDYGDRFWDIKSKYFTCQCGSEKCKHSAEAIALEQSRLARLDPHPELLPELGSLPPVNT

[5] = system: P. falciparum 3D7 strain parasites; test: microbe, parasite or virus in culture; conditions: Plasmodium falciparum, 3D7, 72 h, read-out: Pf3D7 IC50
[6] = system: P. falciparum 3D7 strain parasites; conditions: parasite-killing activity reported earlier, cited from earlier work; for IC50: read-out: Pf3D7 IC50
[7] = system: P. falciparum 3D7 strain parasites; conditions: P. falciparum 3D7, three-day SYBR Green I assay
[8] = system: G9a activity in cells (H3K9me2 levels); conditions: reduction of H3K9me2 levels, ICW; cited from earlier work
[9] = system: PfSET7; test: Initial activity assays using PfSET7; assay type: biochemical, P. falciparum; conditions: data not shown
[10] = system: HepG2 cells; test: cells; conditions: Homo sapiens, HepG2, read-out: anti-HepG2 IC50
[11] = target: T1, G9a; conditions: read-out: G9a IC50; CLOT assay; cited from earlier work
[12] = system: HepG2 cells; conditions: read-out: HepG2 IC50; Tables ST1 and ST2

In the case of `COc1cc2nc(N3CCN(C)CC3)cc(NC3CCN(Cc4ccccc4)CC3)c2cc1OC` [compound 89, N-(1-Benzylpiperidin-4-yl)-6,7-dimethoxy-2-(4-methylpiperazin-1-yl)quinolin-4-amine], the stage-dependent killing phenotype [1] is reported as “erythrocytic stage-independent killing phenotype”, the H3K4me3 levels [2] is reported as “decrease” and the H3K9me3 levels [3] is reported as “decrease”. The IC50 [4] was 21 nM.
Compound `CCN(CC)CCCC(C)Nc1ccnc2cc(Cl)ccc12` (stereo not shown) [Chloroquine] has an IC50 [5] of 8 nM.
In the case of `COc1cc2nc(N3CCN(C)CC3)nc(NC3CCN(C)CC3)c2cc1OC` [compound 39], the “Pf3D7 IC50” value ([6]; P. falciparum 3D7) is given as “low Pf3D7 activity” and the IC50 ([6]; P. falciparum 3D7) is given as greater than 300 nM.
For `COc1cc2c(NC3CCN(C)CC3)nc(N3CCCN(C)CC3)nc2cc1OCCN(C)C` [compound 67], the IC50 ([6]; P. falciparum 3D7) is given as greater than 2000 nM.
For `COc1cc2nc(N3CCC(OC)CC3)cc(NC3CCN(Cc4ccccc4)CC3)c2cc1OC` [compound 90, N-(1-Benzylpiperidin-4-yl)-6,7-dimethoxy-2-(4-methoxypiperidin-1-yl)quinolin-4-amine], the stage-dependent killing phenotype [1] was “erythrocytic stage-independent killing phenotype”, the H3K4me3 levels [2] was “decrease” and the H3K9me3 levels [3] was “decrease”. The IC50 [4] was 119 nM.
In the case of `COc1cc2c(NC3CCN(C)CC3)nc(NCCCN(C)C)nc2cc1OCc1ccccc1` [compound 63], the “Pf3D7 IC50” value [7] is reported as “lost activity against Plasmodium” and the IC50 [4] is reported as greater than 1000 nM.
For `COc1cc2c(NC3CCN(C)CC3)nc(N3CCCN(C)CC3)nc2cc1OCCCN1CCCCC1` [compound 64], the IC50 ([6]; P. falciparum 3D7) is listed as greater than 2000 nM and the “G9a activity in cells” value [8] is listed as “moderate G9a activity in cells”.
For `COc1cc2nc(NCCCN(C)C)nc(NC3CCN(Cc4ccccc4)CC3)c2cc1OC` [compound 17], the “Pf3D7 IC50” value [7] was “poor potency against Plasmodium”, the “G9a IC50” value [4] was “good G9a inhibition” and the IC50 [4] was 123 nM.
For `COc1cc2nc(N3CCCN(C)CC3)nc(NC3CCN(Cc4ccccc4)CC3)c2cc1OC` [compound 1, reference compound], the stage-dependent killing phenotype [1] was “erythrocytic stage-independent killing phenotype”, the H3K4me3 levels [2] was “decrease” and the H3K9me3 levels [3] was “decrease”. For the same compound, the PfSET7 as target [9] was “PfSET7 not to be the target”.
Compound `COc1cc2nc(N3CCCCC3)nc(NC3CCN(C)CC3)c2cc1OC` [compound 40] has an IC50 [4] of 591 nM and an IC50 [10] greater than 10000 nM.
In the case of `COc1cc2c(NC3CCN(C)CC3)nc(N3CCCN(C)CC3)nc2cc1OCCCN1CCCC1` [compound 65], the IC50 ([6]; P. falciparum 3D7) is listed as greater than 2000 nM and the “G9a activity in cells” value [8] is listed as “moderate G9a activity in cells”.
In the case of `COc1cc2c(NC3CCN(C)CC3)nc(N3CCCN(C)CC3)nc2cc1OCCCN(C)C` [compound 66, reference compound], the IC50 ([6]; P. falciparum 3D7) is given as greater than 2000 nM.
In the case of `COCCCCOc1cc2nc(N3CCCN(C)CC3)nc(NC3CCN(C)CC3)c2cc1OC` [compound 71], the IC50 [11] is listed as greater than 10000 nM.
Work on `COc1cc2nc(N3CCOCC3)nc(NC3CCN(Cc4ccccc4)C3)c2cc1OC` (stereo not shown) [S15] yielded a G9a/Pf3D7 ([4]; ratio of G9a IC50 to Pf3D7 IC50) greater than 6.6, an IC50 [4] greater than 1000 nM and an IC50 [12] of 15300 nM. For the same compound, the IC50 ([6]; Tables ST1-ST4, ref 1 (supplement)) was 152 nM.
In the case of `COc1cc2nc(N3CCN(C)CC3)nc(NC3CCN(Cc4ccccc4C)CC3)c2cc1OC` [compound 20], the IC50 [4] is reported as 169 nM.
For `COc1cc2c(NC3CCN(C)CC3)nc(N3CCCN(C)CC3)nc2cc1OCc1ccccc1` [compound 60], the “G9a IC50” value [4] was “complete loss of G9a activity” and the IC50 [4] was greater than 1000 nM.
For `COc1cc2nc(N3CCCN(C)CC3)nc(NC3CCN(C)CC3)c2cc1OC` [compound 38], the “Pf3D7 IC50” value ([6]; P. falciparum 3D7) is given as “low Pf3D7 activity” and the IC50 ([6]; P. falciparum 3D7) is given as greater than 300 nM.
For `COc1cc2nc(N3CCCCC3)nc(NC3CCN(CC4CCCCC4)CC3)c2cc1OC` [compound 46], the IC50 [4] was 295 nM.
For `CCCCCOc1cc2nc(N3CCN(C)CC3)nc(NC3CCN(Cc4ccccc4)CC3)c2cc1OC` [compound 78], the IC50 [4] was roughly 1000 nM.
